Experimental data from PMC9524145, “Open channel block of Kv1.5 channels by HMQ1611” (Frontiers in Pharmacology, 2022).

Columns and labels:
Assay type in all cases: cell-based
[1] = molecular target: T1, wild-type (WT) hKv1.5 (KCNA5) channel (Homo sapiens, UniProt P22460); assay: whole-cell patch-clamp of wild-type hKv1.5 current in transfected CHO cells
T1 construct: Full-length cDNA encoding wild-type (WT) hKv1.5 (KCNA5) subcloned into the pcDNA3.1 expression vector; expressed in transfected cells; host or cells: CHO cells, transient transfection (pcDNA3.1), GFP cDNA co-transfected as a separate marker
Description: Chinese hamster ovary (CHO) cells donated by Dr. Takeru Makiyama (Kyoto University Graduate School of Medicine, Japan) were cultured in Dulbecco’s modified Eagle’s medium/Ham’s F-12 (DMEM/F-12) medium supplemented with 10% fetal bovine serum and antibiotics (100 IU/ml penicillin and 100 μg/ml streptomycin) in a humidified atmosphere with 5% CO2 and 95% air at 37°C. Cells were passaged every 3–4 days with trypsin–EDTA, and a portion of the cells was seeded onto glass cover slips (5 × 3 mm^2) for subsequent transfection.
(§1) Full-length cDNA encoding wild-type (WT) hKv1.5 (KCNA5) subcloned into the pcDNA3.1 expression vector was kindly provided by Dr. David Fedida (University of British Columbia, Canada). All hKv1.5 mutants (T462C, H463C, T479A, T480A, R487V, A501V, I502A, V505A, I508A, A509G, L510A, V512A, and V516A cDNAs) were constructed using a QuickChange II XL site-directed mutagenesis kit according to the manufacturer’s instructions (Stratagene, La Jolla, CA, USA) and subcloned into the pcDNA3.1. All mutants were fully sequenced (ABI3100x; Applied Biosystems, Foster City, CA, USA) to ensure fidelity.
(§2) WT or mutant hKv1.5 cDNA was transiently transfected into CHO cells together with green fluorescent protein (GFP) cDNA (0.5 μg WT or mutant hKv1.5 + 0.5 μg GFP) using Lipofectamine (Invitrogen Life Technologies, Carlsbad, CA, USA). Patch-clamp experiments were conducted on GFP-positive cells 48 h after transfection.
(§3) Kv1.5 currents were recorded using an EPC-8 patch-clamp amplifier (HEKA, Lambrecht, Germany) at 25°C. The data were low-pass filtered at 1 kHz, acquired at 5 kHz through an LIH-1600 analogue-to-digital converter (HEKA), and stored on a hard disc drive using Pulse/PulseFit software (HEKA). For experiments to measure the activation time course of hKv1.5 currents, the data were low-pass filtered at 10 kHz and sampled at 50 kHz. […] Cells attached to glass cover slips were transferred to a recording chamber (0.5 ml in volume) mounted on the stage of an inverted microscope (ECLIPSE TE2000-U, Nikon, Tokyo, Japan) and perfused continuously with Tyrode solution at a flow rate of 1 ml/min.
hKv1.5 channel currents were elicited by applying 300 ms depolarizing steps from a holding potential of -80 mV to various levels of -50 mV to +50 mV in 10 mV steps with a return potential of -40 mV, and each stimulus interval was longer than 10 s. Voltage-dependent activation of hKv1.5 channels was assessed by fitting the normalized I–V relations of the tail currents to a Boltzmann equation: Itail=1/(1+exp((V1/2−Vm)/k)), (1) where I tail is the tail current amplitude normalized with reference to the maximum value measured at +50 mV, V 1/2 is the voltage at half-maximal activation, V m is the test potential, and k is the slope factor.
The concentration–response curve for inhibition of hKv1.5 current by HMQ1611 was drawn by a least-squares fit of the Hill equation: %Control=1/(1+(IC50/[D])^nH), (2) where % Control represents the current in presence of the drug normalized with reference to the control amplitude (expressed as a percentage), IC50 is the concentration of HMQ1611 causing a half-maximal inhibition, nH is the Hill coefficient, and [D] is the drug concentration.
The apparent rate constants for binding (k +1) and unbinding (k -1) were obtained by fitting the equation: τD=1/(k+1[D]+k−1), (3) where τD is the drug-induced time constant, which was calculated from single exponential fits to the traces of current decay during the depolarizing step to +30 mV.
The apparent dissociation constant K D is expressed as kD=k−1/k+1. (4)
Deactivation kinetics of hKv1.5 were determined by fitting a single exponential function to the tail current trace (obtained by depolarizing a cell to +30 mV for 300 ms, followed by a repolarizing pulse to -40 mV).
Normal Tyrode solution contained 140 mM NaCl, 5.4 mM KCl, 1.8 mM CaCl2, 0.5 mM MgCl2, 0.33 mM NaH2PO4, 5.5 mM glucose, and 5.0 mM HEPES (pH adjusted to 7.4 with NaOH). […]

[2] = molecular target: T2, hKv1.5 T479A mutant channel (Homo sapiens, UniProt P22460, T479A); assay: whole-cell patch-clamp of T479A mutant hKv1.5 current in CHO cells; details: 5 μM HMQ1611, late current at +30 mV, n = 8, p < 0.01 vs. WT
T2 construct: Full-length cDNA encoding wild-type (WT) hKv1.5 (KCNA5) subcloned into the pcDNA3.1 expression vector; expressed in transfected cells; host or cells: CHO cells, transient transfection (pcDNA3.1), GFP cDNA co-transfected as a separate marker
Excerpt: as §1
(§4) WT or mutant hKv1.5 cDNA was transiently transfected into CHO cells together with green fluorescent protein (GFP) cDNA (0.5 μg WT or mutant hKv1.5 + 0.5 μg GFP) using Lipofectamine (Invitrogen Life Technologies, Carlsbad, CA, USA). […]
(§5) Kv1.5 currents were recorded using an EPC-8 patch-clamp amplifier (HEKA, Lambrecht, Germany) at 25°C. […]
(§6) The concentration–response curve for inhibition of hKv1.5 current by HMQ1611 was drawn by a least-squares fit of the Hill equation: %Control=1/(1+(IC50/[D])^nH), (2) where % Control represents the current in presence of the drug normalized with reference to the control amplitude (expressed as a percentage), IC50 is the concentration of HMQ1611 causing a half-maximal inhibition, nH is the Hill coefficient, and [D] is the drug concentration. […]

[3] = molecular target: T3, hKv1.5 T480A mutant channel (Homo sapiens, UniProt P22460, T480A); assay: whole-cell patch-clamp of T480A mutant hKv1.5 current in CHO cells
T3 construct: Full-length cDNA encoding wild-type (WT) hKv1.5 (KCNA5) subcloned into the pcDNA3.1 expression vector; expressed in transfected cells; host or cells: CHO cells, transient transfection (pcDNA3.1), GFP cDNA co-transfected as a separate marker
Excerpt: as §1, §4, §5, §6

[4] = molecular target: T4, hKv1.5 V505A mutant channel (Homo sapiens, UniProt P22460, V505A); assay: whole-cell patch-clamp of V505A mutant hKv1.5 current in CHO cells
T4 construct: Full-length cDNA encoding wild-type (WT) hKv1.5 (KCNA5) subcloned into the pcDNA3.1 expression vector; expressed in transfected cells; host or cells: CHO cells, transient transfection (pcDNA3.1), GFP cDNA co-transfected as a separate marker
Excerpt: as §1, §2, §3, §6

[5] = molecular target: T5, hKv1.5 I508A mutant channel (Homo sapiens, UniProt P22460, I508A); assay: whole-cell patch-clamp of I508A mutant hKv1.5 current in CHO cells
T5 construct: Full-length cDNA encoding wild-type (WT) hKv1.5 (KCNA5) subcloned into the pcDNA3.1 expression vector; expressed in transfected cells; host or cells: CHO cells, transient transfection (pcDNA3.1), GFP cDNA co-transfected as a separate marker
Excerpt: as §1, §2, §3, §6

[6] = molecular target: T6, hKv1.5 L510A mutant channel (Homo sapiens, UniProt P22460, L510A); assay: whole-cell patch-clamp of L510A mutant hKv1.5 current in CHO cells; details: 5 μM HMQ1611, late current at +30 mV, n = 6, p < 0.01 vs. WT
T6 construct: Full-length cDNA encoding wild-type (WT) hKv1.5 (KCNA5) subcloned into the pcDNA3.1 expression vector; expressed in transfected cells; host or cells: CHO cells, transient transfection (pcDNA3.1), GFP cDNA co-transfected as a separate marker
Excerpt: as §1, §4, §5, §6

[7] = molecular target: T7, hKv1.5 V512A mutant channel (Homo sapiens, UniProt P22460, V512A); assay: whole-cell patch-clamp of V512A mutant hKv1.5 current in CHO cells; details: 5 μM HMQ1611, late current at +30 mV, n = 6, p < 0.01 vs. WT
T7 construct: Full-length cDNA encoding wild-type (WT) hKv1.5 (KCNA5) subcloned into the pcDNA3.1 expression vector; expressed in transfected cells; host or cells: CHO cells, transient transfection (pcDNA3.1), GFP cDNA co-transfected as a separate marker
Excerpt: as §1, §4, §5, §6

[8] = molecular target: T8, hKv1.5 V516A mutant channel (Homo sapiens, UniProt P22460, V516A); assay: whole-cell patch-clamp of V516A mutant hKv1.5 current in CHO cells
T8 construct: Full-length cDNA encoding wild-type (WT) hKv1.5 (KCNA5) subcloned into the pcDNA3.1 expression vector; expressed in transfected cells; host or cells: CHO cells, transient transfection (pcDNA3.1), GFP cDNA co-transfected as a separate marker
Excerpt: as §1, §4, §5, §6

[9] = from τD of current decay at +30 mV vs drug concentration

T1 sequence (P22460 whole entry): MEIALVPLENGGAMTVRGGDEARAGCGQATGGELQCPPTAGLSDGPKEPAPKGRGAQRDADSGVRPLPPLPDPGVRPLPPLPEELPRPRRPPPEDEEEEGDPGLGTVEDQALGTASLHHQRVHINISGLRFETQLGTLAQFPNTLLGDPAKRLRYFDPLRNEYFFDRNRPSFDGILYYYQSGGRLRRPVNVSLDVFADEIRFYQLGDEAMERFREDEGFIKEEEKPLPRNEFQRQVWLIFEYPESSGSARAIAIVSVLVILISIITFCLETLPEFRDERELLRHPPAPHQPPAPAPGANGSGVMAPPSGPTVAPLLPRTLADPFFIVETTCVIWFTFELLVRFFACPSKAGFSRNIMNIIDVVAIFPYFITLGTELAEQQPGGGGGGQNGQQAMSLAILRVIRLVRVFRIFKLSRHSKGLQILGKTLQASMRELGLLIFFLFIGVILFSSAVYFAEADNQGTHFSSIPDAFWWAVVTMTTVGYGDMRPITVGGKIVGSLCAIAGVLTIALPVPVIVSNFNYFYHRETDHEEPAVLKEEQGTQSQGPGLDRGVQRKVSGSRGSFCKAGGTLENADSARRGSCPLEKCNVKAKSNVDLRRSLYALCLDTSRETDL
T5 sequence (P22460 whole entry I508A): as the sequence (P22460 whole entry) above, with I508A counted along it
T4 sequence (P22460 whole entry V505A): as the sequence (P22460 whole entry) above, with V505A counted along it
T3 sequence (P22460 whole entry T480A): as the sequence (P22460 whole entry) above, with T480A counted along it
T8 sequence (P22460 whole entry V516A): as the sequence (P22460 whole entry) above, with V516A counted along it
T7 sequence (P22460 whole entry V512A): as the sequence (P22460 whole entry) above, with V512A counted along it
T6 sequence (P22460 whole entry L510A): as the sequence (P22460 whole entry) above, with L510A counted along it
T2 sequence (P22460 whole entry T479A): as the sequence (P22460 whole entry) above, with T479A counted along it

CNC(=O)c1ccc(OC)c(OCC(=O)Nc2ccc(F)c(Cl)c2)c1-c1c(C(=O)NC)ccc(OC)c1OCC(=O)Nc1ccc(F)c(Cl)c1 [HMQ1611]
time to start of inhibition on exposure ([1]; 5 μM HMQ1611): 5 to 10 s
time to steady state inhibition ([1]; 5 μM HMQ1611): ≤ 3 min
peak current amplitude at the first depolarizing step ([1]; 5 μM HMQ1611, 1 Hz train, control 6.11 ± 0.99 nA, n = 7, p > 0.05): 5.97 ± 0.98 nA
decrease of peak amplitude of hKv1.5 current at the 20th pulse vs first pulse ([1]; 5 μM HMQ1611, 1 Hz, control 18.29 ± 2.20%, n = 7): 46.57 ± 4.19%
peak current amplitude at the first depolarizing step ([1]; 5 μM HMQ1611, 2 Hz train, control 5.82 ± 1.14 nA, n = 6, p > 0.05): 5.67 ± 0.99 nA
decrease of peak amplitude of hKv1.5 current at the 20th pulse vs first pulse ([1]; 5 μM HMQ1611, 2 Hz, control 32.73 ± 1.74%, n = 6): 66.47 ± 2.38%
steady state level of inhibition of hKv1.5 current ([1]; 5 μM HMQ1611, representative time course, end of 300 ms step to +30 mV, within 3 min): approximately 86 % inhibition
activation time constant ([1]; 5 μM HMQ1611, step to +30 mV, control 1.50 ± 0.25 ms, n = 7, p > 0.05): 1.47 ± 0.18 ms
inhibition at 5 µM ([1]; CHO, WT, 5 μM HMQ1611, late current at end of 300 ms step to +30 mV, n = 7): 83.9 ± 4.06%
IC50 ([1]; WT, late current at end of 300 ms depolarizing step to +30 mV, CHO cells, Hill fit, n = 7, read-out: IC50 for inhibition of hKv1.5 current): 2.07 ± 0.21 µM
recovery of hKv1.5 current after washout ([1]; after 5 μM HMQ1611, within 10 min after washout with normal Tyrode solution): 94.64 % of the control value
Kd ([1]; apparent dissociation constant, +30 mV, read-out: KD value derived by (k-1)/(k+1)): 4.48 µM
slope factor k of Boltzmann activation fit ([1]; during exposure to 5 μM HMQ1611, control 14.09, 6 cells, p < 0.01 vs. control): 1.34
V1/2 (voltage at half-maximal activation, tail currents) ([1]; during exposure to 5 μM HMQ1611, control -0.76 mV, 6 cells, p < 0.01 vs. control): -29.9 mV
apparent binding rate constant (k+1) [1, 9]: 6.65e+06 M⁻¹ s⁻¹
apparent unbinding rate constant (k-1) [1, 9]: 29.9 s⁻¹
deactivation time constant ([1]; in presence of 5 μM HMQ1611, tail current at -40 mV after +30 mV, control 14.8 ± 1.4 ms, n = 10, p > 0.05): 13.1 ± 2.3 ms
effect of intracellular dialysis on Kv1.5 currents ([1]; intracellular dialysis of cells with 5 μM HMQ1611 for 4 min after whole-cell configuration): did not change the Kv1.5 currents
inhibition at 5 µM [2]: 51.1 ± 4.99%
inhibition at 5 µM ([3]; CHO, T480A, 5 μM HMQ1611, late current at +30 mV, n = 7, p < 0.01 vs. WT): 15.3 ± 2.5%
fold decrease in blocking potency compared with IC50 of WT channel ([3]; T480A vs WT): 7 fold
inhibition at 5 µM ([4]; CHO, V505A, 5 μM HMQ1611, late current at +30 mV, n = 7, p < 0.01 vs. WT): 44 ± 4.4%
fold decrease in blocking potency compared with IC50 of WT channel ([4]; V505A vs WT): 3 fold
IC50 ([4]; V505A, Hill fit, n = 7): 6.44 ± 0.18 µM
inhibition at 5 µM ([5]; CHO, I508A, 5 μM HMQ1611, late current at +30 mV, n = 7, p < 0.01 vs. WT): 16.2 ± 2.09%
fold decrease in blocking potency compared with IC50 of WT channel ([5]; I508A vs WT): 5 fold
IC50 ([5]; I508A, Hill fit, n = 7): 10.5 ± 0.41 µM
inhibition at 5 µM [6]: 11.2 ± 2.24%
inhibition at 5 µM [7]: 47.2 ± 3.86%
inhibition at 5 µM ([8]; CHO, V516A, 5 μM HMQ1611, late current at +30 mV, n = 6, p < 0.01 vs. WT): 44.6 ± 5.48%
fold decrease in blocking potency compared with IC50 of WT channel ([8]; V516A vs WT): 4 fold
